This note sets out measurements from BindingDB's records for doi:10.1016/s0960-894x(98)00316-3 (Nippon Roche Research Center, 1998).

For the assay, the target named is Lanosterol 14-alpha demethylase (Candida albicans) (UniProt P10613). Description: In vitro inhibition of cytochrome P450 lanosterol C14 demethylase in Candida albicans CY1005.
Chain of Lanosterol 14-alpha demethylase (Candida albicans) (P10613 whole entry, looked up): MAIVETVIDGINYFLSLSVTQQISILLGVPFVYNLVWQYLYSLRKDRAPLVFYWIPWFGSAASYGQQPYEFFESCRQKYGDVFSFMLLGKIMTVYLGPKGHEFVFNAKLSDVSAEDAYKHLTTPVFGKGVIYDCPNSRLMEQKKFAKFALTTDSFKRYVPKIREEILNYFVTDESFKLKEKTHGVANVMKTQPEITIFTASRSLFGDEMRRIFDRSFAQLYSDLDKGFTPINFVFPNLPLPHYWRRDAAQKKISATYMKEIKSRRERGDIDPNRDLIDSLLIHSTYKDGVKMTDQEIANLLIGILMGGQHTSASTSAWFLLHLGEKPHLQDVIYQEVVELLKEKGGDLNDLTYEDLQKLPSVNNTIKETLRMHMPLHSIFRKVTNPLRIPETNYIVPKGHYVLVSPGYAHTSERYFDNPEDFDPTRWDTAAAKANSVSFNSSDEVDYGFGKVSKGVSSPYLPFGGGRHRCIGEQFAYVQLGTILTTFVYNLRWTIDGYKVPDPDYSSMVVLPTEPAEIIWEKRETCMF

In turn, `CCc1ccc(CC[C@@H]2CCC(C)(C)C(OCCO)[C@H]2Cn2cncn2)cc1` (some centres not stated) yielded an IC50 of 83 nM.
To `CCc1ccc(CC[C@@H]2CCC(C)(C)/C(=N/O)[C@H]2Cn2cncn2)cc1` belongs 73.3 nM; to `CC1(C)CC[C@@H](COc2ccc(OC(F)(F)F)cc2)[C@H](Cn2cncn2)/C1=N\O`, 130 nM.
For the molecule `CCc1ccc(CC[C@@H]2CCC(C)(C)/C(=N/OC)[C@H]2Cn2cncn2)cc1`, it took 86.8 nM to reach half-maximal inhibition (IC50).
Take `CC1(C)CC[C@@H](COc2ccc(OC(F)(F)F)cc2)[C@H](Cn2cncn2)C1OCCO` (some centres not stated): the IC50 was determined as 22.5 nM.
With `CO/N=C1\[C@@H](Cn2cncn2)[C@H](COc2ccc(OC(F)(F)F)cc2)CCC1(C)C`, the IC50 amounted to 56.3 nM.
`COC1[C@@H](Cn2cncn2)[C@H](COc2ccc(OC(F)(F)F)cc2)CCC1(C)C` (some centres not stated) returned a half-maximal inhibitory concentration (IC50) of 118 nM.
